Measurements from US7632816B2, “Treatment of Alzheimer amyloid deposition” (New York University, priority 2003, dated 2009).
Entries after “also recorded” stand apart in the source; their conditions may differ. Square brackets hold non-standard residues; d marks the D form. Peptide text beside a SMILES is read from it.

How the values were obtained:
[1] = In vivo toxicity test in wild type mice; settings: 1 mg i.p. three times per week for four weeks
Procedure: (§1) Initial testing of Aβ12-28P toxicity in vivo was performed on five wild type C57BL6 mice which received intraperitoneal (“i.p.”) injections of 1 mg of Aβ12-28P diluted in 0.5 mL of sterile PBS three times per week for four weeks. […] Signs of toxicity included change in body weight, physical appearance, measurable clinical signs, unprovoked behavior and response to external stimuli were not noticed. After one month, the animals were sacrificed and samples were taken from the brain, liver, gut, spleen, kidney and heart, for hematoxylin and eosin staining. […] The first administration of Aβ12-28P was begun at four months of age, at which time the APP^K670N/M671L/PS1^M146L mice already have significant numbers of Aβ lesions (Wengenack et al., “Quantitative Histological Analysis of Amyloid Deposition in Alzheimer's Double Transgenic Mouse Brain,” Neurosci. 101:939-944 (2000); McGowan et al., “Amyloid Phenotype Characterization of Transgenic Mice Overexpressing Both Mutant Amyloid Precursor Protein and Mutant Presenilin 1 Transgenes,” Neurobiol. Dis. 6:231-244 (1999), which are hereby incorporated by reference in their entirety). The treatment was continued for four weeks (1 mg i.p. three times per week). Control age-matched APP^K670N/M671L/PS1^M146L mice received injections with vehicle only. There were six Aβ12-28P treated and six vehicle treated APP^K670N/M671L/PS1^M146L mice in this study.

[2] = tested on: APP^K670N/M671L/PS1^M146L double Tg mice; assay: Aβ deposition in APP/PS1 double transgenic mice, 6E10 and Thioflavin-S histology with stereology; assay type: in vivo; settings: for Aβ load lower compared to vehicle Tg controls: 1 mg i.p. three times per week, four weeks
Procedure: as §1
Animals were sacrificed a week after the last injection with an overdose of sodium pentobarbital (150 mg/kg i.p.) and transcardially perfused with 20 ml of heparinized 0.1M PBS followed by 4% buffered paraformaldehyde. The brain was dehydrated using increasing concentrations of sucrose in 0.1M PBS, pH 7.4 and sectioned using a freezing microtome (Leica SM2400) (Nussloch, Germany). Serial coronal sections (40 μm thick) were collected in 10 series. Each of the series contained a complete set of cross-sections along the rostro-caudal axis of the brain spaced by 400 μm. […] For Aβ immunohistochemistry, endogenous peroxidase activity was quenched in 0.3% H2O2 for 30 min and incubation with mAb 6E10 at 1:1000 dilution was followed by an anti-mouse IgG biotinylated secondary antibody (1:2000) and avidin-horseradish peroxidase complex (Vectastain MOM kit) (Vector Laboratories, Burlingame, Calif.). Sections were developed using 3,3′-diaminobenzidine kit with nickel ammonium sulfate (Vector Laboratories, Burlingame, Calif.).
Aβ deposition were quantified on one randomly selected section series which was stained with 6E10 mAb. Aβ deposits were measured in the brain cortex and in the hippocampus using a random, unbiased sampling scheme.

Question: What does the source list for `CC(=O)N[C@@H](C(=O)N[C@H](Cc1c[nH]cn1)C(=O)N[C@H](Cc1c[nH]cn1)C(=O)N[C@H](CCC(N)=O)C(=O)N[C@H](CCCCN)C(=O)N[C@H](CC(C)C)C(=O)N1CCC[C@@H]1C(=O)N[C@H](Cc1ccccc1)C(=O)N[C@H](Cc1ccccc1)C(=O)N[C@H](C)C(=O)N[C@H](CCC(=O)O)C(=O)N[C@H](CC(=O)O)C(=O)N[C@@H](C(=O)NCC(=O)N[C@H](CO)C(=O)N[C@H](CC(N)=O)C(=O)N[C@H](CCCCN)C(N)=O)C(C)C)C(C)C` [Aβ12-28P] (Ac-[dV][dH][dH][dQ][dK][dL][dP][dF][dF][dA][dE][dD][dV]G[dS][dN][dK]-NH2)?
Answer: survival and condition ([1]; observed two more weeks, wild type C57BL6 mice): all remained alive and well; hematoxylin and eosin histology of brain, heart, liver, gut, spleen, kidneys ([1]; wild type mice): did not reveal any pathology; signs of toxicity (body weight, physical appearance, clinical signs, unprovoked behavior, response to external stimuli) ([1]; wild type mice): No changes were noted; also recorded: not noticed; reduction in the number of medium-size plaques ([2]; cortex, >500 μm^2 and <1000 μm^2, p<0.05): 53.5%; reduction in the number of large plaques ([2]; cortex, >1000 μm^2, non-significant): 44%; reduction in the density of small plaques ([2]; cortex, cross-section area <500 μm^2, p<0.001): 52.8%; Aβ load lower compared to vehicle Tg controls ([2]; cortex, p=0.0047): 63.3%; density of fibrillar Aβ plaques on Thioflavin-S staining ([2]; four weeks of treatment): reduction in the density of Aβ plaques was also seen; reduction in the density of large plaques ([2]; hippocampus, p<0.05): 65.4%; reduction in the density of medium-size plaques ([2]; hippocampus, p<0.05): 48.6%; reduction in the density of small plaques ([2]; hippocampus, p<0.05): 37.6%; Aβ load lower compared to vehicle Tg controls ([2]; hippocampus, p=0.0048): 61.9%; reduction in the numerical density of Aβ plaques ([2]; hippocampus, p=0.0047): 46.3%; reduction in the numerical density of Aβ plaques ([2]; neocortex, p=0.0002): 60.1%; reduction in Aβ load and plaque density versus control Tg animals, in words ([2]; one month of administration): over two fold; also recorded: significant reduction
